Measurements from paper PMC9820167, “Design and Synthesis of Conformationally Flexible Scaffold as Bitopic Ligands for Potent D3-Selective Antagonists” (International Journal of Molecular Sciences, 2022).

Tests used:
Assay in all cases: PDSP binding screen
[1] = target: T1, Adrenergic alpha2C (Homo sapiens, UniProt P18825)
T1 sequence (P18825 1-462): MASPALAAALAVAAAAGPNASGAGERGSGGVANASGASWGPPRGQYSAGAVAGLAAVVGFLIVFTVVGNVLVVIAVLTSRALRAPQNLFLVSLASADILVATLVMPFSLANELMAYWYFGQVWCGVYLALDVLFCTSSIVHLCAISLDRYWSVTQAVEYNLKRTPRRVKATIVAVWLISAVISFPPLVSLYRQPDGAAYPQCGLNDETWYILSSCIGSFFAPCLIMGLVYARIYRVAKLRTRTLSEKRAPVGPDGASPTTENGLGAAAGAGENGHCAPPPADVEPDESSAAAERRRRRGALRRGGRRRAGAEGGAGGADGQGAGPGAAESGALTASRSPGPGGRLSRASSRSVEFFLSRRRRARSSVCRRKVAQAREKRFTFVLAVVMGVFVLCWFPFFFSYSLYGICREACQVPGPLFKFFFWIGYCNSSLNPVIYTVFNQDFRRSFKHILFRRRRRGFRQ

[2] = target: GABAA; conditions: HCl salts
[3] = target: Histamine H1 (Homo sapiens, UniProt P35367)
Sequence of Histamine H1 (P35367 whole entry): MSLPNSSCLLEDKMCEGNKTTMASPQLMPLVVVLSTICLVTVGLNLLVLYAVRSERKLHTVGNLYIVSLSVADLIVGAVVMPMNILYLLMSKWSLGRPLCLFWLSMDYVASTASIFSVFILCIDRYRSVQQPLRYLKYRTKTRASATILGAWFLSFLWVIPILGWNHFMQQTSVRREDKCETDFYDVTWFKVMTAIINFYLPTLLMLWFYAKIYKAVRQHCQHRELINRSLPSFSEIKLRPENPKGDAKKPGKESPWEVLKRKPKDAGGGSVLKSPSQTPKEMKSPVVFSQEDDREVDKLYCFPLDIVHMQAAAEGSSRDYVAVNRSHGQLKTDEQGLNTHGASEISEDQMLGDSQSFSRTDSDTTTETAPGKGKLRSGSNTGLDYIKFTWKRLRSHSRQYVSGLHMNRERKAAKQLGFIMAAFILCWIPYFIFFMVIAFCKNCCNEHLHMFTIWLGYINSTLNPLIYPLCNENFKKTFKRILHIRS

[4] = target: BZP Rat Brain Site; conditions: HCl salts
[5] = target: T2, Adrenergic alpha2B (Homo sapiens, UniProt P18089)
T2 sequence (P18089 1-450): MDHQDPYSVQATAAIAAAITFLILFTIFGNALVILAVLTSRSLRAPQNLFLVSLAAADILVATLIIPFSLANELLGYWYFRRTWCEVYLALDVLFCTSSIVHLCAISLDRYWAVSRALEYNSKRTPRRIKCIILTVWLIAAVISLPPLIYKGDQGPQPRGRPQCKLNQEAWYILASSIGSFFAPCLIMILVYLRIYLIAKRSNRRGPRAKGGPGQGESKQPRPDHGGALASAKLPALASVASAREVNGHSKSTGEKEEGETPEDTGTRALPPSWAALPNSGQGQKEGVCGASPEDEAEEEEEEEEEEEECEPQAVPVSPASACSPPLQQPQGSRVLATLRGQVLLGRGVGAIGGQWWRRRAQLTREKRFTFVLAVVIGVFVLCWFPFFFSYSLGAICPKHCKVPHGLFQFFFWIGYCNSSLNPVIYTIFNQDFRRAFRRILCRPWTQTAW

[6] = target: T3, Adrenergic alpha2A (Homo sapiens, UniProt P08913)
T3 sequence (P08913 1-465): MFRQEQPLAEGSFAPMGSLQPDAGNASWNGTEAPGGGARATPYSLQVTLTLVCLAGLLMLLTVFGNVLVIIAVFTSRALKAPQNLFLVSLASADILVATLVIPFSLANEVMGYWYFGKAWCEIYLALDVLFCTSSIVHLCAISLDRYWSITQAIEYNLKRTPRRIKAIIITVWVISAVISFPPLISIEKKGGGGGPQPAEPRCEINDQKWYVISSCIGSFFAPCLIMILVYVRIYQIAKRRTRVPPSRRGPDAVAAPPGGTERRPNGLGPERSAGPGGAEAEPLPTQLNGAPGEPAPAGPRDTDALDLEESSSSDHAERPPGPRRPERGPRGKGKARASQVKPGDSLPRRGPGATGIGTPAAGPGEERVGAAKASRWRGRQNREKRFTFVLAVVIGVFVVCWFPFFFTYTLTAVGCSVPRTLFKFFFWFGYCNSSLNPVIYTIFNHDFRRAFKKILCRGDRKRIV

[7] = target: T4, Adrenergic alpha1A (Homo sapiens, UniProt P35348); conditions: for inhibition at 10 µM: read-out: Ki (nM) or % inhibition at 10 µM: alpha1A
T4 sequence (P35348 1-466): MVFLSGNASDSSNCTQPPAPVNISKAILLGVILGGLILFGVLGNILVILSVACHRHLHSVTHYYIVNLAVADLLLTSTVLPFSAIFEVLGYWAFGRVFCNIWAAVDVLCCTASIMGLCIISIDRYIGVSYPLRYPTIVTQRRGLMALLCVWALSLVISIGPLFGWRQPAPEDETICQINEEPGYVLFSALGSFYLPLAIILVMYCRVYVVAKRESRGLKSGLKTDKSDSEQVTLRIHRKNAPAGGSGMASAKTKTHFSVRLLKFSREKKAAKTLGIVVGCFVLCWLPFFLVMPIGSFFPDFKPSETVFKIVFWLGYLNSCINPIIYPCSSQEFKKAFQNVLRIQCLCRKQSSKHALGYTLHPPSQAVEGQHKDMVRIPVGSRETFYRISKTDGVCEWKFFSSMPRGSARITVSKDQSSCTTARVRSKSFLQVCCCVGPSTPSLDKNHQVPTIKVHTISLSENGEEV

[8] = target: T5, Adrenergic alpha1B (Homo sapiens, UniProt P35368); conditions: for inhibition at 10 µM: read-out: Ki (nM) or % inhibition at 10 µM: alpha1B
T5 sequence (P35368 1-520): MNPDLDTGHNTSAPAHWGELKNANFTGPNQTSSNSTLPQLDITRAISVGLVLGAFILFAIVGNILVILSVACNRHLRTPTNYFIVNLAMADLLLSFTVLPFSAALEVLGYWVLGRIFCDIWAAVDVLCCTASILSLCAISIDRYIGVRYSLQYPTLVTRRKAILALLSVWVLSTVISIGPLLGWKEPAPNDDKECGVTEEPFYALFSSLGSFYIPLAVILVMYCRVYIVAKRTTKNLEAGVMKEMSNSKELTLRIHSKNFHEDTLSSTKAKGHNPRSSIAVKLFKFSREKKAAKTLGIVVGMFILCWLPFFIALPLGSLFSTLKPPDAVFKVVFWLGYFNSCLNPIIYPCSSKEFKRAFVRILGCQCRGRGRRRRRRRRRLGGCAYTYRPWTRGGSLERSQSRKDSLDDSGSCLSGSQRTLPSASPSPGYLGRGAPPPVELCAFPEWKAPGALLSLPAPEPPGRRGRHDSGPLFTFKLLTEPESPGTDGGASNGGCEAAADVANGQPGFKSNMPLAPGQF

[9] = target: Dopamine D1 (Homo sapiens, UniProt P21728); conditions: for inhibition at 10 µM: read-out: Ki (nM) or % inhibition at 10 µM: D1
Sequence of Dopamine D1 (P21728 whole entry): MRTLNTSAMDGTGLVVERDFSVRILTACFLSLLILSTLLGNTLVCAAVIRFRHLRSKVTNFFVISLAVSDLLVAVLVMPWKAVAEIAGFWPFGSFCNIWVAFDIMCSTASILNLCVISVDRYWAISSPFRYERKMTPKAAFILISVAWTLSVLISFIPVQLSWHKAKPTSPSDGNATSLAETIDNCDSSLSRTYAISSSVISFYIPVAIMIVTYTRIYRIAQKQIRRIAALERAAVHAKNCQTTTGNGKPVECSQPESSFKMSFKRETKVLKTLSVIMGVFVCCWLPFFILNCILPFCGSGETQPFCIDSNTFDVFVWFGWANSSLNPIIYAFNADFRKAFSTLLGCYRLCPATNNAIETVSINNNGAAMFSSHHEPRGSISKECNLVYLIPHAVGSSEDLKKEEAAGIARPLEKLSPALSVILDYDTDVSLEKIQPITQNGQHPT

[10] = target: Muscarinic M3 (Homo sapiens, UniProt P20309); conditions: for inhibition at 10 µM: read-out: Ki (nM) or % inhibition at 10 µM: M3
Sequence of Muscarinic M3 (P20309 whole entry): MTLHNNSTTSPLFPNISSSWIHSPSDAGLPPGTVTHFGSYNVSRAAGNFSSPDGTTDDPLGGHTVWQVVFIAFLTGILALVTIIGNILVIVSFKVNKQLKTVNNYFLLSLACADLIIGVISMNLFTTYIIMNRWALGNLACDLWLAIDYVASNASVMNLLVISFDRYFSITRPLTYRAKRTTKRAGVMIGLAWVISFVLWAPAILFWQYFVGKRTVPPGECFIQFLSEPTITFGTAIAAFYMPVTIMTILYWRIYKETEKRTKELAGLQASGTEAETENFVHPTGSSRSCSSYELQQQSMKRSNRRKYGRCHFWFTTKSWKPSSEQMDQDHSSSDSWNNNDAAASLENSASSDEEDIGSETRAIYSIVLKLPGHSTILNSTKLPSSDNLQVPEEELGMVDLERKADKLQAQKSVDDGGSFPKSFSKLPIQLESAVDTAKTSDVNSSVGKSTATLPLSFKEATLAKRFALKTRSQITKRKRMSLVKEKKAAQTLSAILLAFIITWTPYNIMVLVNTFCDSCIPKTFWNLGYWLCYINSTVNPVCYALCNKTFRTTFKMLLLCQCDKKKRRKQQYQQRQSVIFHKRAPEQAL

[11] = target: Benzodiazepine receptor (PBR) (Rattus norvegicus, UniProt P16257); conditions: for Ki (nM) or % inhibition at 10 µM: Benzodiazepine receptor (PBR): PDSP, HCl salts

SMILES | Ki [1] [nM] | Ki (nM) or % inhibition at 10 µM: GABAA [2] | Ki [3] [nM] | Ki (nM) or % inhibition at 10 µM: BZP Rat Brain Site [4] | Ki [5] [nM] | Ki [6] [nM] | inhibition at 10 µM [7] [%] | Ki [8] [nM] | Ki [9] [nM] | Ki [10] [nM] | Ki [11] [nM] | inhibition at 10 µM [8] [%] | inhibition at 10 µM [9] [%] | inhibition at 10 µM [10] [%] | inhibition at 10 µM ([11]; read-out: Ki (nM) or % inhibition at 10 µM: Benzodiazepine receptor (PBR)) [%] | Ki [7] [nM] | Ki (nM) or % inhibition at 10 µM: Benzodiazepine receptor (PBR) [11]
CCN(CCCNC(=O)c1ccc(-c2cccs2)cc1)CCNC(=O)c1cc(Br)cc(OC)c1OC [9a, 5-Bromo-N-(2-(ethyl(3-(4-(thiophen-2-yl)benzamido)propyl)amino)ethyl)-2,3-dimethoxybenzamide] | 313 | N/A (N/A; not active means less than 50% inhibition that was obtained in primary binding assay at 10 µM of the compound) | 1490 | N/A (N/A; not active means less than 50% inhibition that was obtained in primary binding assay at 10 µM of the compound) | 235 | 1350 | < 50 | 2190 | 2400 | 4750 | 1450 | – | – | – | – | – | –
CCN(CCCNC(=O)c1ccc(-c2ccncc2)cc1)CCNC(=O)c1cc(Br)cc(OC)c1OC [21c, 5-Bromo-N-(2-(ethyl(3-(4-(pyridin-4-yl)benzamido)propyl)amino)ethyl)-2,3-dimethoxybenzamide] | 524 | N/A (N/A; not active means less than 50% inhibition that was obtained in primary binding assay at 10 µM of the compound) | 591 | N/A (N/A; not active means less than 50% inhibition that was obtained in primary binding assay at 10 µM of the compound) | 909 | 2580 | < 50 | – | – | – | – | < 50 | < 50 | < 50 | < 50 | – | –
CCCN(CCCNC(=O)c1ccc(-c2cccs2)cc1)CCNC(=O)c1cc(Br)cc(OC)c1OC [20a, 5-Bromo-2,3-dimethoxy-N-(2-(propyl(3-(4-(thiophen-2-yl)benzamido)propyl)amino)ethyl)benzamide] | 113 | N/A (N/A; not active means less than 50% inhibition that was obtained in primary binding assay at 10 µM of the compound) | 1360 | N/A (N/A; not active means less than 50% inhibition that was obtained in primary binding assay at 10 µM of the compound) | 672 | 740 | – | 1400 | 4290 | – | 9 | – | – | < 50 | – | 2210 | relatively high affinity
CCN(CCCNC(=O)c1ccc(-c2ccsc2)cc1)CCNC(=O)c1cc(Br)cc(OC)c1OC [21g, 5-Bromo-N-(2-(ethyl(3-(4-(thiophen-3-yl)benzamido)propyl)amino)ethyl)-2,3-dimethoxybenzamide] | 78 | N/A (N/A; not active means less than 50% inhibition that was obtained in primary binding assay at 10 µM of the compound) | 102 | N/A (N/A; not active means less than 50% inhibition that was obtained in primary binding assay at 10 µM of the compound) | 571 | 1160 | – | 1630 | 2010 | – | 6 | – | – | < 50 | – | 2110 | relatively high affinity
CCN(CCCNC(=O)c1cn2ccccc2n1)CCNC(=O)c1cc(Br)cc(OC)c1OC [21e, N-(3-((2-(5-Bromo-2,3-dimethoxybenzamido)ethyl)(ethyl)amino)propyl)imidazo[1,2-a]pyridine-2-carboxamide] | 1760 | N/A (N/A; not active means less than 50% inhibition that was obtained in primary binding assay at 10 µM of the compound) | 675 | N/A (N/A; not active means less than 50% inhibition that was obtained in primary binding assay at 10 µM of the compound) | 2830 | 5570 | < 50 | – | – | 1550 | 11 | < 50 | < 50 | – | – | – | relatively high affinity
